Data on 10 compounds can be found in patent US10759796B2, “CXCR4 inhibitors and uses thereof” (X4 Pharmaceuticals, Inc., priority 2016, dated 2020).

Series [1] concerns the target CXCR-4 transfected U87 cell line (U87.CXCR4) (Homo sapiens (Human), UniProt P61073). The series is described as follows: Intracellular CXCL-12-induced calcium mobilization assay (FLIPR). Type of series: cell-based. As to conditions: U87.CXCR4 cells, CXCL-12 25-50 ng/mL; read-out: IC50 CXCL-12 Ca2+ flux U87.CXCR4+. The method, boiled down:
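U87.CXCR4 cells were seeded at 20,000 per well, cultured 12 hours, then loaded with 4 μM Fluo-2 AM for 45 min at 37° C. in HBSS with 20 mM HEPES and 0.2% BSA, pH 7.4. Calcium flux triggered by CXCL-12 (25-50 ng/mL) was tracked over time by FLIPR fluorescence at 37° C.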
For orientation: Calcium flux is commonly read through the fluorescence of an indicator in the cells.

Series [2] is described as follows: Fraction of drug unbound to brain proteins, rat. Type of series: in vitro ADME. As to conditions: read-out: Fu (b).
A short description of series [3]: Rat pharmacokinetics and brain penetration (IV and PO). Type of series: in vivo. As to conditions: male, SD, 3 mg/kg IV, 10 mg/kg PO; for Kp / Kp uu: brain and plasma; for Kp / Kp uu / clearance / bioavailability / half-life: Rat; for Kp: read-out: Kp (brain/plasma drug concentration ratio); for Kp uu: read-out: Kp, uu (unbound brain/unbound plasma drug concentration ratio); for clearance / bioavailability / half-life: plasma; for bioavailability: read-out: F % (oral bioavailability); for half-life: read-out: t½ (converted). As to the method:
Example 29: Pharmacokinetics and Brain Penetration Experiment to Determine Brain and Plasma Concentrations of Compounds After IV Administration to Male CD1 Mice or Male SD Rat
The study design consisted of 2 groups (24 animals and 18 animals) and administrating the drug [IV: 3 mg/kg (1.5 mL/kg) via foot dorsal vein], [PO: 10 mg/kg (5 mL/kg) via oral gavage] and collecting samples at terminal bleeding for plasma, brain and CSF at 0.25, 0.5, 1, 4, 8 and 24 hr. The IV and PO dosing solutions were prepared in 50 mM citrate buffer (pH 4.0) at 2 mg/mL. The blood collection was performed as follows: the animal was restrained manually at the designated time points, approximately 150 μL of blood sample was collected via cardiac puncture vein into EDTA-2K tubes. The blood samples were maintained in wet ice first and centrifuged to obtain plasma (2000 g, 4° C., 5 min) within 15 minutes post sampling. The brain collection was performed as follows: a mid-line incision was made in the animal's scalp and the skin was retracted. Using small bone cutters and rongeurs, the skull overlying the brain was removed. The brain was removed using a spatula and rinsed with cold saline. The brain was placed in screw-top tubes and then stored under −70° C. until analysis. The CSF collection was performed as follows: the animal was euthanized under deep anesthesia with air bubble tail vein injection. The CSF was collected by direct puncture of butterfly needle into the cisterna magna, using the occipital bone and the wings of the atlas as landmarks. A piece of white paper was used as a background to monitor color change in the sample just above the needle during collection. Upon observation of color change, the PE tubing was quickly clamped off above the color change and cut just above the clamped site. The clear sample was drawn into the syringe.
Plasma Samples Preparation:
An aliquot of 30 μL sample was added with 100 MeCN containing 100 ng/mL IS (Dexamethasone). The mixture was vortexed for 10 min and centrifuged at 5800 rpm for 10 min. An aliquot of 40 μL supernatant was added with 40 μl H2O and the mixture was vortexed for 5 min. An aliquot of 2 μL supernatant was injected for LC-MS/MS analysis.
Brain Samples Preparation:
The sample was homogenized with 3 volumes (v/w) of PBS. An aliquot of 30 μL sample was added with 100 μL ACN containing 100 ng/mL IS (Dexamethasone). The mixture was vortexed for 10 min and centrifuged at 5800 rpm for 10 min. An aliquot of 40 μL supernatant was added with 40 μl H2O and the mixture was vortexed for 5 min. An aliquot of 2 μL supernatant was injected for LC-MS/MS analysis.
An aliquot of 10 μL sample was added with 10 μLMeOH/H2O (1/1) and […], ACN containing 200 ng/mL IS (Dexamethasone) 120 μL H2O. The mixture was vortexed for 5 min. An aliquot of 2 μL supernatant was injected for LC-MS/MS analysis.
The sample analysis was performed on UPLC-MS/MS-02 (Triple Quad 4000) under the following conditions: positive ion, ESI, MRM detection using dexamethasone as internal standard. HPLC conditions: mobile phase A: H2O-0.1% FA, mobile phase B: MeCN-0.1% FA on ACQUITY UPLC HSS T3 (2.1×50 mm, 1.8 μm) column at 60° C.

Series [4] in a line: Fraction of drug unbound to plasma proteins, rat. The series is classed as in vitro ADME. As to conditions: read-out: Fu (p).
Series [5] concerns the target Jurkat cells expressing CXCR4 (Homo sapiens (Human), UniProt P61073). The series is described as follows: Chemokine (CXCL12-AF647) binding inhibition assay. As to conditions: CXCL12-AF647 25 ng/mL, read-out: IC50 CXCL-12 binding Jurkat. The method, boiled down: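 Cells in HBSS, 20 mM HEPES, 0.2% BSA, pH 7.4, preincubated 15 min at room temperature with compound, then 25 ng/mL CXCL12-AF647 for 30 min. After washing and paraformaldehyde fixation, bound ligand read by flow cytometry; percent inhibition calculated from MFI relative to unlabeled and ligand-only controls.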

Setting [6] is: Rat brain, read-out: AUClast (b).
Setting [7] is: Rat plasma, read-out: AUClast (p).

Like-named read-outs stand apart in the source and are kept apart here.

Sequence of CXCR-4 transfected U87 cell line (U87.CXCR4) (P61073 whole entry): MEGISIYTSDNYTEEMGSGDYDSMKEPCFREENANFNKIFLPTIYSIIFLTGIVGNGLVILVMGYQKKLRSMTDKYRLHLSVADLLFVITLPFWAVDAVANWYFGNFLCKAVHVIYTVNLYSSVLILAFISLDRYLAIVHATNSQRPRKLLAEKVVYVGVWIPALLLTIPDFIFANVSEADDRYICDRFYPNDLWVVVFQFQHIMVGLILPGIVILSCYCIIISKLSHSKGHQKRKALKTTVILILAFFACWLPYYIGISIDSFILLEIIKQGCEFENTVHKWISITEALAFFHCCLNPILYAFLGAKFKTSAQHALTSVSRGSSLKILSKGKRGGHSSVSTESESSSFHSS
Sequence of Jurkat cells expressing CXCR4 (P61073 whole entry): as above

What is called IC50 is the concentration that gives 50% inhibition. A word on the bioavailability: it is dose-corrected exposure relative to a reference, in per cent. As for `CN1CCN(c2cccc3nc([C@H]4CCC[C@@H](c5ncccc5Cl)N4)cn23)CC1` (racemic) [Compound I-149], the concentration for half-maximal inhibition (IC50) in series [1] fell in the range of 0.01 to 100 nM. Further, the fraction unbound in series [2] was 0.038. Moreover, in series [3], the Kp was determined as 8.4, the Kp uu worked out at 1.6, the clearance is 127 mL/min/kg and the bioavailability was 37.9%. The half-life in series [3] is 6.7 h. In addition, in series [3] (setting [6]), the AUC(0-t) was 3820 ng·h/mL. Besides, the AUC(0-t) in series [3] (setting [7]) worked out at 457 ng·h/mL. Besides, the fraction unbound in series [4] is 0.2. For the same compound, in series [5], the IC50 fell in the range of 0.01 to 100 nM.
With `CN1CCN(c2cccc3nc([C@H]4CCC[C@@H](c5ncccc5Cl)N4)cn23)CC1` (single isomer, unassigned) [Compound I-188], in series [1], the IC50 lay within 0.01 to 100 nM. Moreover, the fraction unbound in series [2] stood at 0.057. Besides, in series [3], the Kp amounted to 5.65, the Kp uu worked out at 1.04, the clearance was 74.3 mL/min/kg and the bioavailability worked out at 36.9%. Further, the half-life in series [3] is 6.87 h. Also, the AUC(0-t) in series [3] (setting [6]) stood at 4470 ng·h/mL. For the same compound, in series [3] (setting [7]), the AUC(0-t) was 791 ng·h/mL. For the same compound, in series [4], the fraction unbound came to 0.308. In addition, the IC50 in series [5] is 0.01 to 100 nM.
With `CN1CCN(c2cccc3nc([C@@H]4CCC[C@H](c5ncccc5Cl)N4)cn23)CC1` (single isomer, unassigned) [Compound I-189], the IC50 in series [1] was 100 to 1000 nM. In series [2], the fraction unbound was determined as 0.061. Also, in series [3], the Kp turned out to be 4.03, the Kp uu was found to be 0.99, the clearance is 68.8 mL/min/kg and the bioavailability turned out to be 25.4%. Also, in series [3], the half-life was 8.14 h. Moreover, the AUC(0-t) in series [3] (setting [6]) came to 2300 ng·h/mL. Also, the AUC(0-t) in series [3] (setting [7]) worked out at 570 ng·h/mL. The fraction unbound in series [4] came to 0.248. Further, in series [5], the IC50 lay within 0.01 to 100 nM.
For the compound `Cc1cccnc1[C@@H]1CCC[C@H](c2cn3c(-c4cccnc4)cccc3n2)N1C` [Compound I-6], the figures for the IC50 in series [1] and in series [5] were 0.01 to 100 nM and 100 to 1000 nM, respectively.
As to `Cc1cccnc1[C@@H]1CCC[C@H](c2nc3cccc(N4CCN(C)CC4)n3c2Cl)N1C` [Compound I-18], the half-inhibitory concentration (IC50) in series [1] and in series [5] was 0.01 to 100 nM throughout.
In the case of `CCN1CCN(c2cccc3nc([C@H]4CCC[C@@H](c5ncccc5C)N4C)c(Br)n23)CC1` [Compound I-19], the IC50 in series [1] and in series [5] was 0.01 to 100 nM each time.
For `Cc1cccnc1[C@@H]1CCC[C@H](c2nc3cccc(N4CCN(C(C)C)CC4)n3c2Br)N1C` [Compound I-20], the IC50 was 100 to 1000 nM in series [1] and 0.01 to 100 nM in series [5].
For the compound `Cc1cccnc1[C@@H]1CCC[C@H](c2nc3cccc(N4CCC(N(C)C)CC4)n3c2Cl)N1C` [Compound I-114], the concentration for half-maximal inhibition (IC50) in series [1] and in series [5] was 0.01 to 100 nM throughout.
For `Cc1cccnc1[C@@H]1CCC[C@H](c2nc3cccc(N4CCN(C)CC4)n3c2Cl)N1` [Compound I-146], in series [1], the IC50 lay within 100 to 1000 nM. Also, the fraction unbound in series [2] came out at 0.007. In addition, in series [3], the Kp was found to be 1.82, the Kp uu was 0.18, the clearance is 24.3 mL/min/kg and the bioavailability is 70.1%. The half-life in series [3] was 7.89 h. For the same compound, the AUC(0-t) in series [3] (setting [6]) turned out to be 7800 ng·h/mL. In addition, in series [3] (setting [7]), the AUC(0-t) stood at 4280 ng·h/mL. Besides, the fraction unbound in series [4] was 0.07. The IC50 in series [5] lay within 0.01 to 100 nM.
Take `Cc1cccnc1[C@@H]1CCC[C@H](c2cn3c(N4CCN(C)CC4)cccc3n2)N1` [Compound I-187]: the IC50 in series [1] and in series [5] was 0.01 to 100 nM throughout.
